Tests used:
[1] = target: T1, PPAR-γ (peroxisome proliferator activated receptor gamma) (Homo sapiens, UniProt P37231); conditions: as described in WO 2010/014889 A2; cited from earlier work
T1 sequence (P37231 1-505): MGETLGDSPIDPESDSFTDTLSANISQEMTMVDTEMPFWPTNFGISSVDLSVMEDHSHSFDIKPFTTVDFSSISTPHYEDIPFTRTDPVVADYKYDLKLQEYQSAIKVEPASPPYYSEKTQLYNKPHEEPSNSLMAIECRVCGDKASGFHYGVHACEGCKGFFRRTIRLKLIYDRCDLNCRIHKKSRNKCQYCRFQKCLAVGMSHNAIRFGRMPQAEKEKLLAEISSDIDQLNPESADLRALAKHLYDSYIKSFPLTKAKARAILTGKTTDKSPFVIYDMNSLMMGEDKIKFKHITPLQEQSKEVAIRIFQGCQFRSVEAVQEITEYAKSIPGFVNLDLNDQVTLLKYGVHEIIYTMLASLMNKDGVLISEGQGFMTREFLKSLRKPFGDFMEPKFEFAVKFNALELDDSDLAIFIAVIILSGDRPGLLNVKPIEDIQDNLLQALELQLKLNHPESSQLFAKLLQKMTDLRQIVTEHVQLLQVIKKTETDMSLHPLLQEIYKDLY

[2] = system: fibrotic vascular and tissue remodeling in heart, liver and lung; conditions: Ang II, hypoxia and obesity models; cited from earlier work
[3] = system: Bleomycin-treated 3 mo old C57Bl6 mice; assay: Reversal of established fibrosis in bleomycin-treated mice; format: in vivo; conditions: 7.5 mg/kg oral, 2 additional weeks
Excerpt: Nitroalkenes can reverse established fibrosis.

[4] = system: long-term NASH diet-induced liver damage; conditions: NASH diet mice; cited from earlier work
hepatocytes = conditions: in vitro; cited from earlier work
human stellate cells = conditions: in vitro; cited from earlier work

**Q.** With Nitro-linoleic acid as the compound, how does the “activation of the PPAR-γ receptor” value [1] read?
**A.** The value was “nanomolar activators”.

**Q.** And the “fibrotic vascular and tissue remodeling” value [2]?
**A.** Its value is “inhibit fibrotic vascular and tissue remodeling”.

**Q.** With `CCCCCC=CC/C(=C\CCCCCCCC(=O)O)[N+](=O)[O-]` (stereo in doubt) [10-nitro linoleic acid, (9E,12Z)-10-nitrooctadeca-9,12-dienoic acid] as the compound, how does the “activation of the PPAR-γ receptor” value [1] read?
**A.** Its value is “potent, selective activators”.

**Q.** For `CCCCC/C=C(\C/C=C\CCCCCCCC(=O)O)[N+](=O)[O-]` [12-nitro linoleic acid, 12-nitrolinoleic acid], which “activation of the PPAR-γ receptor” value [1] is on record?
**A.** Its value is “potent, selective activators”.

**Q.** Which results are given for NO2-oleic acid?
**A.** Ashcroft scoring [3]: decreased collagen deposition; Masson's trichrome and αSMA staining [3]: resolution of pathologic remodeling; qRT-PCR of TGFβ, Col1A1, αSMA, vimentin, MMP7 and E-cadherin expression [3]: inhibition of these pro-fibrotic indices; reversal of fibrosis [3]: significant reversal of fibrosis; RNA-sequencing analysis of liver tissue [4]: inflammation and fibrosis as major pathways suppressed; SREBPI proteolytic activation and subsequent lipogenesis gene expression [4]: inhibition of SREBPI proteolytic activation and subsequent lipogenesis gene expression; body composition and energy metabolism (CLAMS and NMR-based analysis) [4]: improved body composition and energy metabolism; hepatic triglyceride (TG) accumulation [4]: inhibiting hepatic triglyceride (TG) accumulation; liver steatosis and fibrosis by photoacoustic-ultrasound imaging [4]: robust inhibition of liver steatosis and fibrosis; TG biosynthesis and accumulation (hepatocytes): inhibited TG biosynthesis and accumulation; fibrogenesis (human stellate cells): inhibited fibrogenesis; activation of the PPAR-γ receptor [1]: nanomolar activators; fibrotic vascular and tissue remodeling [2]: inhibit fibrotic vascular and tissue remodeling
